These are literature values, as cited in EP1935397A1, “Oral and tooth care and cleaning agents for combating halitosis” (Henkel AG & Co. KGaA, priority 2006, dated 2008).

Where two headings read alike, the source gives them in different places.

`[O-2].[Zn+2]` [Zinkoxid]: the Löslichkeit entry (temperature not given, result in words) is “Unlöslich”.
Take Zinkacetat-Dihydrat: for the setting “20°C”, the Löslichkeit is 430 g/l (20°C).
Take Zinkbromid: for the setting “25°C”, the Löslichkeit is 820 g/l (25°C).
In the case of Zinkchlorid, the Löslichkeit (25°C) is 4320 g/l (25°C).
On to Zinkgluconat, for which the Löslichkeit (20°C) was 100 g/l (20°C).
In the case of Zinkhydroxycarbonat, the Löslichkeit entry (20°C, result in words) was “Fast unlöslich (20°C)”.
Regarding Zinkiodid, for the setting “20°C”, the Löslichkeit was 4500 g/l (20°C).
As to Zinknitrat Hexahydrat, for the setting “20°C”, the Löslichkeit is 1843 g/l (20°C).
Consider Zinknitrat-Tetrahydrat, for which, under “20°C, result in words”, the Löslichkeit result was “Leicht löslich (20°C)”.
Consider Zinkstearat, for which the Löslichkeit (20°C) is 0,9 mg/l (20°C).
Regarding Zinksulfat-Heptahydat, the Löslichkeit (20°C) is 960 g/l (20°C).
Turning to Zinksulfat-Monohydrat, the Löslichkeit (20°C) was ~350 g/l (20°C).
